Results published in patent US12662707B2, “MYC amplification drives resistance to pan-RAS inhibitors in pancreatic cancer” (The Trustees of Columbia University in the City of New York, priority 2024, dated 2026).

Assays:
[1] = system: RAS/MAPK pathway (pERK) in murine PDAC cell lines; assay: Western blot of pERK, murine PDAC cell lines; type: cell-based; conditions: 1-100 nM, 2 hours
Method: Cells were seeded at 7.5×10^5-4×10^6 cells per well in 6-well plates or 100 mm dishes in growth medium. After overnight incubation, indicated compound (RMC-7977, IAG933 or DMSO (0.1% v/v)) were added and incubated for the indicated time points. Cells were washed twice with ice-cold PBS and lysed with NP-40 lysis buffer (Thermo Fisher Scientific, J60766), MSD Tris Lysis Buffer (MSD, R60TX-2), RIPA buffer (50 mM TRIS-HCl, pH 7.5, 150 mM NaCl, 1% NP-40, 0.5% sodium deoxycholate, 0.1% SDS) or a lysis buffer containing 1% Triton X-100, 20 mM Tris-HCl, 150 mM NaCl, and 1 mM EDTA. All lysis buffers were supplemented with protease and phosphatase inhibitors. Lysates were scraped and collected before centrifugation at 21,000×g for 10 minutes at 4° C. The protein-containing supernatants were quantified by BCA assay (Pierce, 23225) and equal quantities of protein were denatured with LDS and reducing agent at 95° C. Samples were resolved on 12% or 4-12% Bis-Tris polyacrylamide gels, then transferred to a nitrocellulose or PVDF membrane using the iBlot 2.0 system or wet transfer. Membranes were blocked in Intercept TBS buffer (LiCor, 927-60001) or 3-5% milk before probing with primary antibodies overnight at 4° C. Secondary antibodies were added as appropriate, and the membranes were imaged on a LiCor Odyssey imager. […]

[2] = system: CC3+ apoptotic cells, Cyclin A2; assay: CC3 and Cyclin A2 IHC in KPF/FC mice (tumor, colon); type: in vivo, mouse
Method: (§1) Tumor formation in KPF/FC (KrasLSL.G12D/+; p53flox/flox; Pdx1-Cre) mice was monitored by bi-weekly palpations until the detection of a mass, which was then confirmed by ultrasound. Tumor-bearing mice were randomized and assigned into groups (n=3/dose/timepoint). Single dose of RMC-7977 was administered orally at 10 mg/kg, 25 mg/kg and 50 mg/kg. The same vehicle formulation was used for the control group. Whole blood and tissue (tumors and colons) were harvested at indicated time points preserved as previously described (See Xenograft studies section).
(§2) All tissues were fixed for up to 24 hours using 10% neutral buffered formalin and then moved to 70% ethanol for long term storage. All stainings were performed on 4-μm tissue sections. Sections were deparaffinized using a Leica XL ST5010 autostainer, after which slides were subjected to heat-activated epitope retrieval. To block endogenous peroxidases, 20 min incubation in 3% H2O2 (Fisher Scientific) was performed. Slides were further blocked in serum for 1 hour, and primary antibodies were added for overnight incubation at 4° C. The next day, slides were washed and incubated with ImmPRESS HRP Horse Anti-Rabbit IgG Polymer Detection Kit (Vector Laboratories, MP-7401) for 30 min. Following incubation, ImmPACT DAB peroxidase (Vector Laboratories, SK-4100) was used to develop the stain and hematoxylin was used as nuclear counterstain. Stained slides were imaged at 40× magnification. Quantitative analyses of IHC images were performed using ImageJ.

[3] = system: 796 human tumor cell lines; assay: PRISM multiplex cell line screening; type: cell-based; conditions: 5 days; relative to the other cell lines of the screen
Method: The PRISM cell set consisted of 796 cell lines representing more than 45 lineages, which largely overlapped with the Cancer Cell Line Encyclopedia (CCLE) (portals.broadinstitute.org/ccle). Cell lines were grown in RPMI without phenol red, supplemented with 10% or 20% FBS for adherent and suspended lines, respectively. Parental cell lines were stably infected with a unique 24-nucleotide DNA barcode via lentiviral transduction and blasticidin selection. After selection, barcoded cell lines were expanded and subjected to quality control (mycoplasma contamination test, a SNP test for confirming cell line identity, and barcode ID confirmation). Approved cell lines were then pooled (20-25 cell lines per pool) based on doubling time similarity and frozen in assay-ready vials.
RMC-7977 was added to 384-well plates at 8-point concentration with 3-fold dilutions in triplicate. These assay-ready plates were then seeded with the thawed cell line pools. […]
Each cell line's unique barcode is located in the 3′UTR of the blasticidin resistance gene and therefore is expressed as mRNA. […] Finally, Luminex beads that recognize the specific barcode sequences in the cell set were hybridized to the PCR products and detected using a Luminex scanner which reports signal as a median fluorescent intensity (MFI). […]

[4] = system: pERK in colon; assay: pERK IHC in colon tissues of KPF/FC mice; type: in vivo, mouse; conditions: KPF/FC cohort; 10 and 25 mg/kg dose levels
Method: as §1
as §2, with “Following incubation, ImmPACT DAB peroxidase (Vector Laboratories, SK-4100) was used to develop the stain and hematoxylin was used as nuclear counterstain. Stained slides were imaged at 40× magnification.” left out

CCn1c(-c2cc(N3CCN(C4CC4)CC3)cnc2[C@H](C)OC)c2c3cc(ccc31)-c1csc(n1)C[C@H](NC(=O)[C@H]1[C@@H]3COC[C@@H]31)C(=O)N1CCC[C@H](N1)C(=O)OCC(C)(C)C2 [RMC-7977]
phosphorylation of ERK1/2 (pERK) [1]: reduced phosphorylation
time to full restoration of Cyclin A2 levels in normal colon ([2]; KPF/FC mice): ≤ 24 h
proliferation (Cyclin A2) in normal colon ([2]; KPF/FC mice, at 12 hours): transient decrease
spike in CC3+ apoptotic cells in tumors ([2]; KPF/FC tumors, four hours after a single dose): ~4 fold
apoptosis in normal tissues ([2]; all doses and time points): negligible or absent
sensitivity of human PDAC cell lines in PRISM screen (AUC) [3]: among the most sensitive
RAS/MAPK activity (pERK) in colon tissues [4]: rapidly restored to baseline
